Measurements taken from patent EP0165781A1, “Aromatase inhibiting N-substituted imidazole derivatives” (ELI LILLY AND COMPANY, priority 1984, dated 1985).

Molecular target: T1, aromatase (Rattus norvegicus, UniProt P22443)
T1 construct: ovarian microsomes are obtained from rats treated with pregnant mares serum gonadotropin; from tissue; host or cells: ovarian microsomes of rats treated with pregnant mares serum gonadotropin
T1 sequence (P22443 1-508): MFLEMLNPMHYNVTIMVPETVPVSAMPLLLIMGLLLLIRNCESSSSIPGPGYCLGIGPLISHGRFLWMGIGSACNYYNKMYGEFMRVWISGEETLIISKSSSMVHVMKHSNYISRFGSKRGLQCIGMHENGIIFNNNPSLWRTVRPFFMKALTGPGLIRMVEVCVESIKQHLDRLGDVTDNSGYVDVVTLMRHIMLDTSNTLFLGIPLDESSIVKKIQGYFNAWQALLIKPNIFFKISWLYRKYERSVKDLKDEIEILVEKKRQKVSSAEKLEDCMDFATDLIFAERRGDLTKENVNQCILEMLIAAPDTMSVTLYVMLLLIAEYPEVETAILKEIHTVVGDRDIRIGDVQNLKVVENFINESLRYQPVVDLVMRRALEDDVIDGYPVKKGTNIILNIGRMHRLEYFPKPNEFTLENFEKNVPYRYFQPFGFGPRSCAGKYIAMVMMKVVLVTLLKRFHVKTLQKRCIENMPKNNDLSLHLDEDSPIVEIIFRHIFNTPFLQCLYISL
Experiment: isolated rat ovarian microsome aromatase inhibition (modified method of Brodie et al.)
Type: biochemical
Conditions: rat ovarian microsomes; substrate androstenedione 0.1 µM; [3H]-H2O release; NADPH generating system; read-out: concentration of inhibitor required to produce a 50% inhibition of enzyme activity (EC50)
Experimental: In this test system, ovarian microsomes are obtained from rats treated with pregnant mares serum gonadotropin. Test compounds are added to reaction vials containing […] 4-androstene-3,17-dione, 100,000 dpm 1,2[^3H]-androstenedione, the microsomes and a NADPH generating system. The concentrations of the inhibitors tested ranged between […]. […] Potency is determined based on the concentration of inhibitor in µM required to produce a 50% inhibition of enzyme activity (EC50) when the concentration of substrate (androstenedione) is 0.1 µM.

EC50: 1.1 µM
Compound: CC(=O)N1CCN(c2ccc(OCC3COC(Cn4ccnc4)(c4ccc(Cl)cc4Cl)O3)cc2)CC1 (stereo not shown) [ketoconazole, 1-acetyl-4-[4-([2-(2,4-dichlorophenyl)-2-(1H-imidazol-1-ylmethyl)-1,3-dioxolan-4-yl]methoxy)-phenyl]piperazine]
